In PMC9794768, “Molecular mechanism of substrate recognition by folate transporter SLC19A1” (Cell Discovery, 2022):
Blank lines part the entries; values can stand above or below the molecule they belong to.

Experiments:
SLC19A1 [1] = molecular target: T1, SLC19A1 (Homo sapiens, UniProt P41440); experiment: [3H]-MTX uptake competition in HEK293F cells at […]; FSEC-based thermostability in detergent lysate; assay type: cell-based; parameters: GFP-tagged SLC19A1
T1 sequence (P41440 1-591): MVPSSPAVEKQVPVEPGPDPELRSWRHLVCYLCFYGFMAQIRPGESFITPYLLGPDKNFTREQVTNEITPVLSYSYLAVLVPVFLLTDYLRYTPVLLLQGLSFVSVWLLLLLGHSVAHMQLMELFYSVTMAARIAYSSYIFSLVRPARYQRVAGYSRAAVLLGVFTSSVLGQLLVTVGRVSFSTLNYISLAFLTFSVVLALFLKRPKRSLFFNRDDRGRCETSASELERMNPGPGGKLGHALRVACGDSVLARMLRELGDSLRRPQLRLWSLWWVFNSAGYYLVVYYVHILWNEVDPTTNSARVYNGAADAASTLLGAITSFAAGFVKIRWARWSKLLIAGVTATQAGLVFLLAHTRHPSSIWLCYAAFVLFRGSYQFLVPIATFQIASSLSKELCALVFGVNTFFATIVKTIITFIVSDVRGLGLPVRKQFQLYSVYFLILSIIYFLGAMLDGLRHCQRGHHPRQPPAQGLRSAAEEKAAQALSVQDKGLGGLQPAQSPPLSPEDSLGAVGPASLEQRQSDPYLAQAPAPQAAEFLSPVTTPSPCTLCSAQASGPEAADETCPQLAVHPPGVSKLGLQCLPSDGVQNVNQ

SLC19A1 [2] = molecular target: T1, SLC19A1; experiment: cryo-EM structure at […] Å and MST; also [3H]-MTX uptake inhibition (IC50 […]) and FSEC thermostability; assay type: binding; parameters: full-length SLC19A1 (MST); BRIL-SLC19A1/Fab/Nb (cryo-EM)
SLC19A1 [3] = molecular target: T1, SLC19A1; experiment: FSEC-based thermostability in detergent lysate; [3H]-MTX uptake competition in HEK293F cells at […]; assay type: cell-based; parameters: GFP-tagged SLC19A1

SMILES: Cc1ncc(C[n+]2csc(CCOP(=O)(O)O)c2C)c(N)n1 [TMP, Thiamine monophosphate]
[3H]-MTX uptake competition in HEK293F cells at 200 μM; FSEC-based thermostabili (SLC19A1 [1]): TMP effectively competed with [^3H]-MTX in the transporter assay and enhanced the thermostability of SLC19A1

Kd (SLC19A1 [2]): 327 ± 76 µM
SMILES: Cc1ncc(C[n+]2csc(CCO[P@](=O)(O)OP(=O)(O)O)c2C)c(N)n1 [TPP, thiamine pyrophosphate]

SMILES: Nc1nc(=O)c2nc(CNc3ccc(C(=O)N[C@@H](CCC(=O)O)C(=O)O)cc3)cnc2[nH]1 [folate]
FSEC-based thermostability in detergent lysate; [3H]-MTX uptake competition in H (SLC19A1 [3]): the well-documented substrates 5-MTHF and folate significantly enhanced the thermostability of SLC19A1
